Assay results from US20240309015A1, “Methods for the Treatment of Fibrotic Disease” (SHY Therapeutics, LLC, priority 2021, published 2024).

Columns and labels:
[1] = tested on: KRas G12C mutant; experiment: Ras GTP Binding Domain Inhibition Assay, KRas G12C mutant; conditions: at 20 μM
Method in brief: (§1)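 Ni-plate-captured His-tagged GTPase (10-30 μg/mL, o/n 4° C); cpd 20 μM or serial dilution (IC50), 1% DMSO, 3 h RT; optional Sos 556-1049 His-tag (10-30 μg/mL) last hour. Cy3- or Cy5-GTP 100 nM, 45 min RT, 3× wash, fluorescence read.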

[2] = tested on: KRas wild type; experiment: Ras GTP Binding Domain Inhibition Assay, KRas wild type; conditions: at 20 μM
Method in brief: as §1

[3] = tested on: KRas G12D mutant; experiment: Ras GTP Binding Domain Inhibition Assay, KRas G12D mutant; conditions: at 20 μM; for KRas G12D mutant + SOS: % inh.: with SOS; for KRas G12D mutant: % inh.: without SOS
Method in brief: as §1

[4] = tested on: JNK; experiment: JNK Activation Assay in PANC-1; type: cell-based, human; set-up: key: Y = yes; N = No; conditions: at 10 μM
Method: Cell lines: Human tumor-derived pancreatic cancer cell line Panc-1 and mouse muscle myoblast C2C12 were purchased from American Type Culture Collection and grown in complete DMEM-High Glucose, supplemented with penicillin (100 U/mL), streptomycin (100 μg/mL), and 10% heat-inactivated FBS at 37° C. in a humidified incubator with 5% CO2.
Method: Cells were plated at 350000 cells/well density in a 12-well plate, allowed 3 hours to adhere to the plate, then starved in the appropriate medium in the presence of 0.5% FBS overnight. The small molecules to be tested were added to the cells in the final concentration of 10 μM in the presence of 0.3% DMSO for 3 hours incubation at 37° C. For IC50 value determination, serial dilutions of compounds were added to cells under the same conditions. […] Protein concentration was assessed by BCA protein assay (Thermo Scientific). Phosphorylation level of JNK was determined by western blot.
Western blot protocol: Equal amounts of protein (15-50 μg) were separated by SDS-PAGE and transferred to nitrocellulose membranes (Invitrogen by Thermo Fisher Scientific). […] Membranes were blocked with 10% milk and phosphorylation levels of Smad2, Smad3, JNK and p38 were assessed by incubating overnight at 4° C. with the following antibody: Phospho-SAPK/JNK (Thr183/Tyr185), from Cell Signaling Technology. […]

- KRas G12C mutant + SOS: % inh. ([1]; with SOS): D (D = 76-100% inhibition)
- KRas G12C mutant: % inh. ([1]; without SOS): B (B = 26-45% inhibition)
- KRas wild type + SOS: % inh. ([2]; with SOS): D (D = 76-100% inhibition)
- KRas wild type: % inh. ([2]; without SOS): B (B = 26-45% inhibition)
- KRas G12D mutant + SOS: % inh. ([3]; Table 7): C (C = 46-75% inhibition)
- KRas G12D mutant + SOS: % inh. ([3]; Table 8): C (C = 46-75% inhibition)
- KRas G12D mutant: % inh. ([3]; Table 7): A (A = 1-25% inhibition)
- KRas G12D mutant: % inh. ([3]; Table 8): A (A = 1-25% inhibition)
SMILES: CO[C@H]1CC[C@@H](Nc2nc(-c3nccn3C)nc3sc(-c4ccn(C)n4)c(-c4ccccc4)c23)C1 (racemic) [Compound 5, rac-N-((1R,3S)-3-Methoxycyclopentyl)-2-(1-methyl-1H-imidazol-2-yl)-6-(1-methyl-1H-pyrazol-3-yl)-5-phenylthieno[2,3-d]pyrimidin-4-amine]
- Activation of JNK in PANC-1 [4]: Y
